Laboratory results as given in patent US20050222198A1, “Imidazo[4,5-c]pyridine compounds and methods of antiviral treatment” (priority 2003, published 2005).

Assays:
Format in all cases: cell-based
[1] = HCV CC50 assay protocol (MTT); conditions: HCV replicon cells
Description: (§1) • HCV Replicon Media • DMEM w/High Glucose (or MEM) • 1×Glutamine • 1× Sodium Pyruvate • 10% Heat Inactivated FBS • 1× Antibiotics Cell Culture Preparation • 1. Unthaw frozen stock in 10-12 mls of Media • 2. Allow cells to attach before adding G418 (4-6 hrs) • 3. Add G418 for a final concentration of 200 ug/ml (higher amounts are possible but cells grow slowly) • 4. Split cells 1:4 to 1:6 for optimal growth • 5. In-house replicon seems to maintain Luciferase signal for ˜20 passages HCV Replicon Assay • 1 Dilute compounds in 100 uL of HCV Replicon Media (without G418). If compounds are diluted in DMSO add DMSO to media (Final DMSO concentration should be <1%) • 2. Once cells have reached 80-90% confluency, trypsinize with 1×Trypsin • 3. […] These cells tend to clump if over trypsinized • 4. For 96 well format add 6,000-8,000 cells per well (G418 is withheld during compound testing) • 5. Incubate for 3 days at 37° C. Cells should be very close to confluent. • 6. Remove media and add 200 μL of a 0.2 mg/mL MTT solution prepared in media. • 7. Incubate for 1.5 hours to 2 hours. • 8. Remove media and add 150 μL of DMSO • 9. Mix and incubate for 5 mins at room temperature • 10. Read plate at 530 nm in the plate reader. Results

HCV replicon = experiment: Anti-HCV assay/Replicon assay 2 (luciferase); conditions: Hepatitis C virus, 72 h, 3 days
Description: • HCV Replicon Media • DMEM w/High Glucose (or MEM) • 1× Glutamine • 1× Sodium Pyruvate • 10% Heat Inactivated FBS • 1× Antibiotics Cell Culture Preparation • 1. Unthaw frozen stock in 10-12 mls of Media • 2. Allow cells to attach before adding G418 (4-6 hrs) • 3. Add G418 for a final concentration of 200 ug/mL (higher amounts are possible but cells grow slowly) • 4. Split cells 1:4 to 1:6 for optimal growth • 5. In-house replicon seems to maintain Luciferase signal for ˜20 passages HCV Replicon Assay • 1. Dilute compounds in 100 uL of HCV Replicon Media (without G418). If compounds are diluted in DMSO add DMSO to media (Final DMSO concentration should be <1%) • 2. Once cells have reached 80-90% confluency, trypsinize with 1× Trypsin • 3. […] These cells tend to clump if over trypsinized • 4. For 96 well format add 6,000-8,000 cells per well (G418 is withheld during compound testing) • 5. Incubate for 3 days at 37° C. Cells should be very close to confluent. • 6. Remove media and wash cells with 1×PBS • 7. Remove PBS and add 100 μL of 1×Promega Lysis Buffer • 8. Incubate cells at Room Temperature for 5-20 minutes • 9. Add 100 μL of room temperature Luciferase Substrate Solution (Promega) to Microfluor Black Plate (VWR) • 10. Thoroughly Mix Cell lysate (pipet up and down) before adding to Luciferase substrate • 11. Add 75 μL of lysate to the Luciferase substrate solution • 12. Read Plate On Top Count (FusionLucB program˜5 second read) • 13. Left over lysate can be frozen and used for later analysis Determination of Cytostatic Effect on MDBK Cells

HCV replicon cells = experiment: HCV CC50 assay protocol (MTT); conditions: 3 days
Description: as §1

SMILES | CC50 at 3 days [1] [µM] | EC50 (HCV replicon) [µM] | CC50 (HCV replicon cells) [µM]
Fc1ccccc1-c1nc2ccn(Cc3cc(-c4ccc(Cl)cc4)no3)cc-2n1 [Example 2, 5((3-(4-chlorophenyl)isoxazol-5-yl)methyl)-2-(2-fluorophenyl)-5H-imidazo[4,5-c]pyridine] | 26 | 0.01 | 
Fc1cccc(-c2nc3ccn(Cc4ccc(OC(F)(F)F)cc4)cc-3n2)c1F [Example 3A, 5-(4-(trifluoromethoxy)benzyl)-2-(2,3-difluorophenyl)-5H-imidazo[4,5-c]pyridine] | 34 | 0.02 | 
Fc1ccc(-c2ccc(Cn3ccc4nc(-c5cccc(F)c5F)nc-4c3)cc2)c(F)c1 [Example 4, 5-(2,4-difluoro-biphenyl)methyl-2-(2,3-difluorophenyl)-5H-imidazo[4,5-c]pyridine] | 19 | 0.01 | 
Fc1cccc(-c2nc3ccn(Cc4cc(-c5ccc(Cl)cc5)no4)cc-3n2)c1F [Example 5, 5-((3-(4-chlorophenyl)isoxazol-5-yl)methyl)-2-(2,3-difluorophenyl)-5H-imidazo[4,5-c]pyridine] | 10.8 | 0.0039 | 13.4
